This note sets out measurements from paper PMC10119930, “Dual Molecules Targeting 5-HT6 and GABA-A Receptors as a New Approach to Combat Depression Associated with Neuroinflammation” (ACS Chemical Neuroscience, 2023).

Several values for one entry are separate records, joined by “and”; a condition that tells them apart may be missing. Identical values can stand only once. Like-named read-outs stand apart in the source and are kept apart here.

Series [1] concerns the target T1, 5-HT6 receptor (Homo sapiens, UniProt P50406). Put plainly: Radioligand binding assay for 5-HT6 receptor ([3H]-LSD displacement). Also noted: expressed in transfected cells; host or cells: HEK-293 (cryopreserved membranes). The following applies: for Ki: competitive replacement of [3H]-LSD, ±S.E.M. The procedure:
To determine the affinity for 5-HT6, the cryopreserved membranes from HEK-293 cells stably transfected with the human recombinant 5-HT6 receptor were used.[40] Preparation of the tested compounds included preparation of stock solutions in DMSO (1 mM) and subsequent serial dilutions (10^–10–10^–5 M) of tested compounds in the appropriate buffer (50 mM Tris buffer, pH 7.4, 10 mM MgCl2, 0.5 mM ethylenediaminetetraacetic acid). The serial dilutions were acquired directly on a 96-well microplate. The reaction mix included 50 μL of appropriate concentration of tested molecule, 50 μL of [^3H]LSD 2.5/2.0 nM, and 150 μL of diluted membranes. The microplate containing the reaction mix was protected with a sealing tape and incubated for 60 min at 37 °C. Quenching of the reaction mixtire included: rapid filtration through UniFilter 96 GF/B filter microplate and rapid washes using 200 μL 50 mM assay buffer and vacuum manifold and 96-well pipettor. The collected microplates were dried overnight at 37 °C. The UniFilter bottoms were sealed, and then 30 μL of Betaplate Scint liquid scintillator (PerkinElmer) was added to each well. […] The obtained data were fit to a one-site curve-fitting equation using Prism 5 software (GraphPad Software), and the Ki values were determined using the Cheng–Prusoff equation. Radioligand binding was performed in duplicates.

Series [2] concerns the target muscimol site of the GABA-A receptor. The series can be described thus: Radioligand binding assay for GABA-A receptor ([3H]muscimol displacement, rat brain homogenate). The following applies: competitive replacement of [3H]muscimol; ±S.E.M. The protocol:
The study was acquired according to the earlier protocols.[39] The rats’ brains were homogenized and prepared accurately according to the previous protocol.[39] On the day of the study, brain homogenates were thawed at room temperature and “diluted” in 20 volumes of ice-cold 50 mM Tris-HCl buffer (pH 7.4) and centrifuged (20.000g, 30 min, 0–4 °C). The assay was performed directly on 96-well microplates, which contained 50 mM Tris-HCl buffer (pH 7.4) in a total volume of 300 μL. Reaction mix included 240 μL of the brain tissue suspension, 30 μL of [^3H]-muscimol, and 30 μL solution of tested compounds (administrated at various concentrations: 10^–10–10^–5 M). […] The 96-well microplates containing the reaction mix were incubated for 10 min at 0 °C, followed by rapid filtration over glass fiber filters FilterMate B (PerkinElmer, USA) using the Harvester-96 MACH III FM (Tomtec, USA). The filter mats were dried using a microwave and then placed inside a plastic bag (PerkinElmer, USA). After that, they were soaked in 10 mL of Ultima Gold MV liquid scintillation cocktail (PerkinElmer, USA). […] Ki values were estimated according to the Cheng and Prusoff equation. The study was performed in duplicates. The statistical analysis was performed using (GraphPad Prism, version 4.0, San Diego, CA, USA).

The target of series [3] is T1, 5-HT6 receptor. The series can be described thus: Functional assay for 5-HT6 receptor, antagonist mode (aequorin, CHO-K1 cells). The following applies: ±S.E.M., read-out: 5-HT6 R KB. On the set-up: expressed in transfected cells; host or cells: CHO-K1 (co-expressing mitochondrially targeted aequorin and G protein α16). It counts as cell-based. The protocol:
The studies were acquired according to previous protocols.[41] All the examined compounds (novel and the reference) were dissolved in DMSO (1 mM) and diluted accordingly using the assay buffer, directly in 96-well microplate. The recombinant CHO-K1 cells expressing human GPCR, mitochondrially targeted aequorin, and the promiscuous G protein α16 specific for 5-HT6 were used for the functional assay. The cells were thawed and suspended in the appropriate buffer containing DMEM/HAM’s F12 with 0.1% protease free BSA and were then centrifuged. After adding coelenterazine h to a final concentration of 5 μM, the cell pellet was resuspended in the buffer. The cell suspension was incubated at 16 °C for 16 h while being protected from light, gently shaken, and diluted with assay buffer to a concentration of 5000 cells/mL. Following that, 50 μL of the cell suspension was introduced to preloaded white opaque 96-well microplates containing the tested molecules. This was done using the automatic injectors integrated into the radiometric and luminescence plate counter MicroBeta2 LumiJET (PerkinElmer, USA). The light emission resulting from calcium mobilization was monitored for a duration of 60 s. For examination of the antagonistic properties of tested molecule, following 30 min of incubation, the reference agonist was administrated and the light emission was detected.

The subject of series [4] is human α1β2γ2-GABA-A receptors. Put plainly: Electrophysiological studies, automated patch clamp (QPatch16X), HEK293 cells. Format: cell-based. The following applies: agonist mode, compound at 10 μM; current amplitude normalized to 10 μM GABA response; ±S.E.M. The procedure: Electrophysiological studies were acquired using the QPatch16X automatic patch clamp platform (Sophion Biosciences) as described before.[42],[43] […] Before the assay, cells were detached from the culture flask by treating them with TrypLE Express solution (Life Technologies) and subsequently suspended in serum-free media. The cells were loaded into a 1.5 mL microtube on the automated electrophysiology instrument, which subsequently performed a spin-down using its built-in centrifuge. Following this, the cells were washed with Ringer’s extracellular solution. The cells were moved to the pipetting wells of a 16-channel planar patch chip plate (QPlate 16X) designed for single-use. A combined suction/voltage protocol was then applied to establish gigaseals. […] During the entire whole-cell recording, the holding potential was maintained at −90 mV. […] The intracellular solution contained 140 mM CsF, 1 mM EGTA, 5 mM CsOH, 10 mM HEPES, 20 mMNaCl (pH 7.2, 320 mOsm). […] The acquired data were examined with QPatch assay software (v5.0, Sophion Biosciences)[44] and are represented as the mean of three separated measurements performed on distinct cells. The efficacy of the tested molecules was determined by calculating the baseline-corrected ratio of the maximum current amplitudes elicited by the tested compounds and the reference agonist (T1-ATG/AG1-ATG or T2-ATG/AG1-ATG). The raw current recordings were standardized and presented as a percentage of the current amplitude evoked by the reference agonist, using the QPatch assay software (v5.0, Sophion Biosciences).

The subject of series [5] is female Wistar rats. Put plainly: Forced swim test in rats. Format: in vivo, rat. The protocol:
(§1) Naïve female Wistar rats (weighing 180–200 g) were used in the study. The animals were housed in groups of three to four in standard Makrolon cages (37 cm × 21 cm × 15 cm) under strictly controlled laboratory conditions (ambient temperature 21–24 °C, relative humidity 45–65%) with a 12/12 h light–dark regime (light on at 6:00 a.m. and off at 6:00 p.m.). Animals had unrestricted access to tap water and food (typical pellets). Prior the experiment the animals were randomly appointed to the group. The behavioral studies were accomplished between 8:00 a.m. and 5:00 p.m. with the researcher blind to the study. The experiments were performed according to protocols approved by the Local Ethical Committee in Krakow (Approval Number 147/2018), Poland. Housing and experimental procedures were conducted under the European Union Directive of September 22, 2010 (2010/63/EU) and Polish legislation regarding animal studies. All efforts were made to minimize animal suffering and the number of animals used in the study.
(§2) Vortioxetine (Sigma, Germany) and the tested compounds (16 and 6) were dissolved in 10% cyclodextrin and administered ip 30 min before the test or during 14 consecutive days, with the last injection 60 min before the test. 10% cyclodextrin was administrated to control group.
(§3) A modified forced swim test was carried out according to Detke et al.[50],[51] First, the animals were individually placed inside Plexiglas cylinders, which were 40 cm high and 18 cm in diameter, filled with water at a temperature of 23–25 °C for 15 min. Afterward, the rats were transferred to a Plexiglas box and kept under a 60 W bulb for 30 min to dry. The day after, exactly 24 h later, the rats were once again placed in the cylinder, and their duration of immobility, swimming, and climbing was observed and recorded during a 5 min. The swimming behavior involved energetic movements such as horizontal swimming around the cylinder, while climbing activity referred to upward movements of the forepaws along the swim chamber’s side. Immobility was recorded when the rat only made necessary movements to keep its head above the water. For each test, a fresh water was provided. Open field test in rats: The test was conducted as previously reported by our research group.[52] The test was performed in a darkened room employing the Motor Monitor System (Campden Instruments, Ltd., U.K.). The system was equipped with two SmartFrame Open Field stations, each measuring 40 cm × 40 cm × 38 cm and consisting of 16 × 16 beams. These stations were placed inside sound-attenuating chambers and connected to a PC software using […]. The animals, belonging to either the vehicle-injected or drug-injected group, were individually positioned at the center of the station. The Motor Monitor System, which was automated, recorded the animal’s ambulation in both the X and Y axes, as well as the number of rearing and peeping episodes. Additionally, the total distance traveled by each animal during the 5 min test period was also recorded. Statistical analysis: Results are presented as the mean ± SEM values. They were estimated using one-way analysis of variance (ANOVA), followed by Newman–Keuls post hoc or unpaired two-tailed Student t test. Statistical significance was considered when p < 0.05 for differences between groups.

The subject of series [6] is female Wistar rats. The series can be described thus: Open field test in rats (locomotor activity). It counts as in vivo, rat. Also noted: total distance traveled: unit not given here. The following applies: chronic treatment, dose 8, ip 14 days. The procedure:
as §1, §2, §3

Where [7] appears, read: acute, 8 mg/kg ip 30 min before test.

T1 sequence (P50406 whole entry): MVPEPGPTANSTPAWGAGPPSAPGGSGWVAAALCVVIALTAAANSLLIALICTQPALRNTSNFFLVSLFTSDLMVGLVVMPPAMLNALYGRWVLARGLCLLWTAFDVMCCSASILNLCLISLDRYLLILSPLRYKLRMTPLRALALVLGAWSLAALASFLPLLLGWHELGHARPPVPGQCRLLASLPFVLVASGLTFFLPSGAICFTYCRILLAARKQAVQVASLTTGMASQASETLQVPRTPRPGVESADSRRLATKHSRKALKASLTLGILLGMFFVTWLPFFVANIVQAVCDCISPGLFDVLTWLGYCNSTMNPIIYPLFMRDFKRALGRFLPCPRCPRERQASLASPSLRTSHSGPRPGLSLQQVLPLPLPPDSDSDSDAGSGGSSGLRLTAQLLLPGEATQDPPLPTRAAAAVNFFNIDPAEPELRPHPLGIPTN

For `Cl.Cl.NCCCC(=O)OCCN1CCN(c2cccc3c2OCC(=O)N3Cc2ccccc2)CC1` [Compound 19, 1-(2-((4-Ammoniobutanoyl)oxy)ethyl)-4-(4-benzyl-3-oxo-3,4-dihydro-2H-benzo[b][1,4]oxazin-8-yl)piperazin-1-ium Dichloride], the inhibitory constant (Ki) at 5-HT6 receptor [1] (read-out: 5-HT6R Ki) was 25 ± 1 nM; in series [2], 247 ± 24.7 nM. Moreover, the “fold higher 5-HT6 affinity compared to 18” value at 5-HT6 receptor [1] (ratio of Ki values) was 5 fold. In addition, the Kb on 5-HT6 receptor [3] amounted to 7 ± 0.1 nM. Further, the “[%] of 10 μM GABA activity” value in series [4] was 9.5% and 9.5 ± 3.5%.

On to `O=c1oc2c(N3CCNCC3)cccc2n1Cc1ccccc1` [Compound 3, 3-Benzyl-7-(piperazin-1-yl)benzo[d]oxazol-2(3H)-one], for which, on 5-HT6 receptor [1] (5-HT6R Ki), the Ki stood at 4 ± 0.2 nM.

As for `OCCN1CCN(c2cccc3c2OCCN3Cc2ccccc2)CC1` [Compound 10, 2-(4-(4-Benzyl-3,4-dihydro-2H-benzo[b][1,4]oxazin-8-yl)piperazin-1-yl)ethan-1-ol], the Ki at 5-HT6 receptor [1] (read-out: 5-HT6R Ki) amounted to 24 ± 2 nM.

Turning to `NCCCC(=O)OCCN1CCN(c2cccc3c2OCCN3Cc2ccccc2)CC1` [Compound 20, 1-(2-((4-Ammoniobutanoyl)oxy)ethyl)-4-(4-benzyl-3,4-dihydro-2H-benzo[b][1,4]oxazin-8-yl)piperazin-1-ium Dichloride], the inhibition constant Ki turned out to be 1260 ± 82 nM at 5-HT6 receptor [1] (read-out: 5-HT6R Ki) and 184 ± 4 nM in series [2]. For the same compound, the Kb on 5-HT6 receptor [3] came to 1670 ± 1 nM.

Regarding `Cc1ccc(Sc2ccccc2N2CCNCC2)c(C)c1` [vortioxetine, Vortioxetine, reference compound], in the series with female Wistar rats [5] (setting [7]), the climbing entry is reported as “had no impact”, the “prolongation of swimming time” value came out at 88.1% and the “reduction of immobility time” value was 24.7%. In the series on female Wistar rats [5] (subchronic, 8 mg/kg ip for 14 days, test 60 min after last injection), the “decrease of immobility time vs vehicle-treated group” value is recorded as 19.5%. Further, in the series with female Wistar rats [6], the X ambulation is recorded as 260.1, the Y ambulation was found to be 265.9, the rearing is given as 50.6 and the total distance traveled stood at 2753.

`O=C1COc2c(N3CCNCC3)cccc2N1Cc1ccccc1` [Compound 4, 4-benzyl-8-(piperazin-1-yl)-2H-benzo[b][1,4]oxazin-3(4H)-one] had a Ki on 5-HT6 receptor [1] (5-HT6R Ki) of 1 ± 0.2 nM.

Consider `O=c1[nH]c2c(N3CCN(CCO)CC3)cccc2n1Cc1ccccc1` [Compound 7, 1-Benzyl-4-(4-(2-hydroxyethyl)piperazin-1-yl)-1,3-dihydro-2H-benzo[d]imidazol-2-one], for which the Ki at 5-HT6 receptor [1] (read-out: 5-HT6R Ki) was 40 ± 3 nM.

Take `O=C1COc2c(N3CCN(CCO)CC3)cccc2N1Cc1ccccc1` [Compound 9, 4-Benzyl-8-(4-(2-hydroxyethyl)piperazin-1-yl)-2H-benzo[b][1,4]oxazin-3(4H)-one]: the Ki at 5-HT6 receptor [1] (read-out: 5-HT6R Ki) stood at 4 ± 0.4 nM.

Take `NCCCC(=O)OCCN1CCN(c2cccc3c2[nH]c(=O)n3Cc2ccccc2)CC1` [Compound 17, 1-(2-((4-Ammoniobutanoyl)oxy)ethyl)-4-(1-benzyl-2-oxo-2,3-dihydro-1H-benzo[d]imidazol-4-yl)piperazin-1-ium Dichloride]: the Ki stood at 57 ± 5.9 nM on 5-HT6 receptor [1] (read-out: 5-HT6R Ki) and 592 ± 52.5 nM in series [2]. Further, the antagonist equilibrium constant (Kb) at 5-HT6 receptor [3] came to 193 ± 3.5 nM.

As for `O=c1oc2c(N3CCN(CCO)CC3)cccc2n1Cc1ccccc1` [Compound 8, 3-Benzyl-7-(4-(2-hydroxyethyl)piperazin-1-yl)benzo[d]oxazol-2(3H)-one], at 5-HT6 receptor [1] (read-out: 5-HT6R Ki), the Ki came to 150 ± 7.6 nM.

`c1ccc(CN2CCOc3c(N4CCNCC4)cccc32)cc1` [Compound 5, 4-(4-Benzyl-3,4-dihydro-2H-benzo[b][1,4]oxazin-8-yl)piperazin-1-ium Chloride] registered an inhibitory constant (Ki) at 5-HT6 receptor [1] (5-HT6R Ki) of 60 ± 7.5 nM.

The compound `O=c1[nH]c2c(N3CCNCC3)cccc2n1Cc1ccccc1` [Compound 2, 1-benzyl-4-(piperazin-1-yl)-1,3-dihydro-2H-benzo[d]imidazol-2-one] showed an inhibition constant (Ki) on 5-HT6 receptor [1] (5-HT6R Ki) of 0.2 ± 0.02 nM.
